Source: PMC7684578, “Isopedopeptins A–H: Cationic Cyclic Lipodepsipeptides from Pedobacter cryoconitis UP508 Targeting WHO Top-Priority Carbapenem-Resistant Bacteria” (ACS Chemical Biology, 2020)
pEC50, pIC50: −log10 of the molar value.

Key:
[1] = biological target: cellular LPS receptors; parameters: method as in PMID 24281661; conditions: read-out: IC50 inhibition of binding of bacterial LPS to cellular receptors; cited from earlier work
[2] = Bacterial membrane permeabilization assay (carboxyfluorescein leakage from liposomes); format: biochemical; conditions: large unilamellar liposomes from E. coli phospholipid extract, 45 min, 37 °C

In the case of polymyxin B, the pIC50 [1] is listed as 8.44, the pEC50 [2] is listed as 6.00 and the pEC50 ([2]; listed as Polymyxin B) is listed as about 6.00.
